Data: ChEMBL document CHEMBL5104099, “Recent applications of seven-membered rings in drug design” (Bioorg Med Chem, 2022)
Values after ≈ are worked out from the molar mass of the structure shown.

Key:
[1] = Aqueous solubility of the compound; assay type: physicochemical
[2] = molecular target: Human immunodeficiency virus type 1 protease (Human immunodeficiency virus 1, UniProt Q72874); assay: Binding affinity to HIV-1 protease assessed as inhibition constant incubated for 60 mins by mass spectrometric analysis
[3] = molecular target: Tyrosine-protein kinase BTK (Homo sapiens, UniProt Q06187); assay: Inhibition of BTK in human whole blood; assay type: tissue-based
Tyrosine-protein kinase BTK, sequence (Q06187 whole entry): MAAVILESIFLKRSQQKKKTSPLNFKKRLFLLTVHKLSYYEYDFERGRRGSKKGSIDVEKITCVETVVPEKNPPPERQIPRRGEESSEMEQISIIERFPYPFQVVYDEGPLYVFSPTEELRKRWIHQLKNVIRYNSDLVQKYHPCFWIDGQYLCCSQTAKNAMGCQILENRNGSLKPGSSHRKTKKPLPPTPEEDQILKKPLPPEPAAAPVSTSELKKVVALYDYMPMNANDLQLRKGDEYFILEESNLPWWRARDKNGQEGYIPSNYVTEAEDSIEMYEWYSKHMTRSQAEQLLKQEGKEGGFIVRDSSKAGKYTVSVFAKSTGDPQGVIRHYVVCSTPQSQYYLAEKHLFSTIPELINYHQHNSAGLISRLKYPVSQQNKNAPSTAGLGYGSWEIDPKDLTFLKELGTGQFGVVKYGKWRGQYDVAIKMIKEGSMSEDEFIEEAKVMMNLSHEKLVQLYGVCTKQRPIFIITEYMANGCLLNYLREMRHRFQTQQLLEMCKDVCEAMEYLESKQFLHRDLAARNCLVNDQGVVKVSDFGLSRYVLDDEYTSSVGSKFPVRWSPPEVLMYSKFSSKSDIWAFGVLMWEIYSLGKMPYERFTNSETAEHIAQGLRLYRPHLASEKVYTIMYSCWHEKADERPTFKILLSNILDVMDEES

Compound: Cn1c2c(cc(Nc3ccc(C(=O)N4CCOCC4)cn3)c1=O)-c1cccc(-n3ncc4cc(C(C)(C)C)cc(F)c4c3=O)c1C[C@H](O)C2
- solubility [1]: 1 µg/mL (≈ 1.5 µM)

Compound: CC(C)[C@H]1Cc2cc(F)ccc2S(=O)(=O)N(C[C@@H](O)[C@H](Cc2ccccc2)NC(=O)O[C@H]2CCOC2)C1
- Ki [2]: 0.36 nM

Compound: Cn1cc(-c2cccc(-n3ncc4cc(C(C)(C)C)cc(F)c4c3=O)c2CO)cc(Nc2ccc(C(=O)N3CCOCC3)cn2)c1=O
- IC50 [3]: 1 nM
